pIC50: −log10 of the molar value.

The subject of assay [1] is fibrinogen binding to activated platelets. Nature of the assay: 125I-Fibrinogen binding to activated platelets. The settings on record: thrombin-activated platelets, 125I-fibrinogen 0.15 μM; for % Inhibition Fibrinogen Binding @ 30 μM: 30 μM compound, 10 minutes, room temperature; for pIC50: printed in column % Inhibition Fibrinogen Binding @ 30 μM, read-out: Fibrinogen Binding, IC50 (concentration given in lieu of a percentage). The protocol:
The compounds of the invention as identified above are evaluated for platelet aggregation inhibition activity as indicated by the percentage of non-aggregated platelets which are available for binding in accordance with the following procedure.
^125 I-Fibrinogen binding to activated platelets is a modification of the procedure described by Bennett et al., 1988. Briefly, 40 mL of PRP (obtained from Biological Specialty Corp., Lansdale, Pa.) are centrifuged at 120×g to remove contaminating red cells. Aspirin (50 μM) is added and the PRP is incubated at 37° C. for 20 minutes. The pH of the PRP is adjusted to 6.5 with 3.8% sodium citrate and 0.9 μM of PGE1 is added. Platelets are concentrated by a 300×g centrifugation (10 minutes) and the pellet is resuspended in 4 mL. of Tyrode's buffer. The platelet suspension (4 mL) is gel-filtered through a Sepharose-2B column (50 mL bed volume). The platelet count is adjusted to 1×10^8 platelets per 200 mL. The binding reaction is performed in polystyrene tubes (final volume […]). Reagents are added in the following order: 80 mL of Tyrode's buffer, 50 mL of CaCl2 (final concentration (f.c.) […]) and 50 mL of thrombin (f.c. 0.1 unit/mL). The platelet suspension is then added and the mixture is allowed to incubate at room temperature for 2 minutes. Hirudin (50 mL, f.c. 0.5 unit/mL) is immediately added to prevent the catalytic activity of thrombin. Various concentrations of the compound to be tested […] with the competing radioligand ^125 I-fibrinogen (f.c. of 0.15 μM) are added. The mixture is incubated for 10 minutes at room temperature. To terminate the binding reaction the platelets are sedimented (10,000×g for 3 minutes) through silicone oil (3:1 hi-phenol 550/methyl silicone 200, W. F. Nye, Inc., New Bedford, Mass.), in an Eppendorf centrifuge.
The tips of the centrifuge tubes containing the pelleted platelets are cut off and counted for ^125 I-fibrinogen associated with the stimulated platelets. The amount of platelet radioactivity measured in the presence of nonlabeled fibrinogen (4 mg/mL) is considered the nonspecific binding. All samples are repeated in triplicate.
Data are expressed as a percent at concentrations of 30 μM of specifically bound ^125 I-fibrinogen to the platelets in Table 6 below. Positive percentages of fibrinogen binding indicates higher activity for inhibiting platelet aggregation since only non-aggregated or free platelets are available for fibrinogen binding. Alternatively, a concentration is provided in lieu of a percentage to indicate the IC50 of concentration of compound which provides 50% fibrinogen binding.

For assay [2], the system named is platelets (platelet aggregation). Nature of the assay: Platelet aggregation inhibition (gel-filtered platelets, thrombin or ADP agonist, aggregometer). It is filed as cell-based. The settings on record: 37° C.; for inhibition at 50 µM: Platelet, 50 μM compound, three minutes; for pIC50: % Inhibition Platelet Aggregation @ 50 μM, read-out: Platelet Aggregation, concentration given in lieu of a percentage (IC50). As to the method: The percentage of platelet aggregation is calculated as an increase in light transmission of drug treated platelet concentrate vs control treated platelet concentrate. Blood is obtained from drug free, normal donors and placed into tubes containing 0.13M sodium citrate (two sources are routinely used: platelet concentrate obtained from Biological Specialty Corp., Lansdale, Pa. or whole blood obtained from donors). Platelet rich plasma (PRP) is collected by centrifugation of the concentrate or whole blood at 130×g for 15 minutes at 25° C. The PRP (5 mL) is gel filtered through Sepharose 2B (bed volume 50 mL), and the platelet count is adjusted to 2×10^7 platelets per sample. The following constituents are added to a siliconized cuvette: 250 μL of the concentrated platelet filtrate, 100 μL of Tyrode's buffer (0.14M NaCl, 0.0027M KCl, 0.012M NaHCO3, 0.76 mM Na2 HPO4, 0.0055M glucose and 2 mg/mL BSA pH 7.4), 50 μL of 2 mM calcium and test drug […]. Aggregation is monitored in a dual channel Chrono-log Aggregometer for three minutes following the addition of agonist (thrombin 50 μL of 1 unit/mL, or ADP 50 μL of 100 μM). The final assay volume is 500 μL. The reaction takes place at 37° C. The peak aggregation response is calculated as the increase in light transmission units over a three minute period. The difference of the increase in light transmission between control and drug treated platelets is then expressed as a percent of the nondrug treated controls.

By inhibition is commonly meant the percentage by which the read-out fell short of the control. Read a high inhibition as a response far below the control. For the molecule `CCN(CC)CCCNC(=O)c1cnc(Nc2nc(-c3ccc(C)cc3)cs2)nc1C(F)(F)F` [Cmpd 2], in assay [1], the “% Inhibition Fibrinogen Binding @ 30 μM” value turned out to be 12%. In assay [2], this molecule displayed an inhibition at 50 µM of 75%.
Regarding `O=C(NCCCn1ccnc1)c1cnc(Nc2nc(-c3cccc(C(F)(F)F)c3)cs2)nc1C(F)(F)F` [Cmpd 3], the “% Inhibition Fibrinogen Binding @ 30 μM” value in assay [1] amounted to 4%. Besides, in assay [2], 50 µM produced 55% inhibition.
Take `NCCCNC(=O)c1cnc(Nc2nc(-c3cccc(C(F)(F)F)c3)cs2)nc1C(F)(F)F` [Cmpd 4]: in assay [1], the “% Inhibition Fibrinogen Binding @ 30 μM” value is listed as 50%. In addition, in assay [2], the pIC50 was 5.00.
As to `COc1ccc(-c2csc(Nc3ncc(C(=O)NCCCN(C)C)c(C(F)(F)F)n3)n2)cc1` [Cmpd 5], in assay [1], the “% Inhibition Fibrinogen Binding @ 30 μM” value is listed as 47%. Also, the inhibition at 50 µM in assay [2] stood at 96%.
`O=C(NCCCNC1CCCCC1)c1cnc(Nc2nc(-c3cccc(C(F)(F)F)c3)cs2)nc1C(F)(F)F` [Cmpd 6]: the results for the pIC50 in assay [1] and in assay [2] were 4.52 and 4.82, respectively.
Turning to `O=C(NCCCN1CCCCCC1)c1cnc(Nc2nc(-c3cccc(C(F)(F)F)c3)cs2)nc1C(F)(F)F` [Cmpd 7], the “% Inhibition Fibrinogen Binding @ 30 μM” value in assay [1] is 14%. Further, the inhibition at 50 µM in assay [2] stood at 95%.
For `O=C(NCCCNC1CCCC1)c1cnc(Nc2nc(-c3cccc(C(F)(F)F)c3)cs2)nc1C(F)(F)F` [Cmpd 8], in that order: 50% and 85%.
Regarding `CCCCNCCCNC(=O)c1cnc(Nc2nc(-c3cccc(C(F)(F)F)c3)cs2)nc1C(F)(F)F` [Cmpd 9], the pIC50 in assay [1] is 5.47. The inhibition at 50 µM in assay [2] was found to be 96%.
For `O=C(NCCCNC1CCCCC1)c1cnc(Nc2nc(-c3cccc(C(F)(F)F)c3)cs2)nc1-c1ccccc1` [Cmpd 10], the “% Inhibition Fibrinogen Binding @ 30 μM” value in assay [1] is reported as 15%. The same molecule displayed an inhibition at 50 µM in assay [2] of 25%.
In the same order, the values of `O=C(NCCCN1CCCC1=O)c1cnc(Nc2nc(-c3cccc(C(F)(F)F)c3)cs2)nc1C(F)(F)F` [Cmpd 11] are 10% and 25%.
In the case of `CN1CCN(CCCNC(=O)c2cnc(Nc3nc(-c4cccc(C(F)(F)F)c4)cs3)nc2C(F)(F)F)CC1` [Cmpd 12], in assay [1], the “% Inhibition Fibrinogen Binding @ 30 μM” value was 47%. The molecule further returned an inhibition at 50 µM in assay [2] of 90%.
Regarding `O=C(NCCCN1CCCCC1)c1cnc(Nc2nc(-c3cccc(Cl)c3)cs2)nc1C(F)(F)F` [Cmpd 13], in assay [1], the “% Inhibition Fibrinogen Binding @ 30 μM” value turned out to be 16%. The molecule also displayed an inhibition at 50 µM in assay [2] of 94%.
For `O=C(NCCCN1CCCCCC1)c1cnc(Nc2nc(-c3cccc(Cl)c3)cs2)nc1C(F)(F)F` [Cmpd 14], in that order: 15% and 98%.
Consider `O=C(NCCCNC1CCCCC1)c1cnc(Nc2nc(-c3cccc(Cl)c3)cs2)nc1C(F)(F)F` [Cmpd 15], for which the “% Inhibition Fibrinogen Binding @ 30 μM” value in assay [1] is recorded as 73%. In addition, the pIC50 in assay [2] is 4.83.
`CCCNCCCNC(=O)c1cnc(Nc2nc(-c3cccc(Cl)c3)cs2)nc1C(F)(F)F` [Cmpd 16]: the “% Inhibition Fibrinogen Binding @ 30 μM” value in assay [1] turned out to be 20%. This molecule also gave an inhibition at 50 µM in assay [2] of 96%.
`CCCCNCCCNC(=O)c1cnc(Nc2nc(-c3ccc(C)cc3)cs2)nc1C(F)(F)F` [Cmpd 17]: the “% Inhibition Fibrinogen Binding @ 30 μM” value in assay [1] was 43%. In assay [2], this molecule had an inhibition at 50 µM of 36%.
For `Cc1sc(Nc2ncc(C(=O)NCCCNC3CCCCC3)c(C(F)(F)F)n2)nc1-c1ccccc1` [Cmpd 18], in that order: 47% and 58%.
